Test results from PubChem BioAssay AID2060905 (Molecular Pharmacology Branch, DTP, NCI, 2025).
pIC50: −log10 of the molar value. Where “and” joins values, the source holds several entries; their conditions need not be identical. Equal values may be shown once.

Test system: 282377-053-R-J1-PDC complex spheroid viability
Assay: Anticancer human tumor 282377-053-R-J1-PDC patient-derived colon adenocarcinoma cell line growth inhibition [RAS]
Conditions: for viability, T/C: stronger effect = lower value
Source text: RAS pathway inhibitors in Combinations in Complex Spheroids
A high-throughput screen of multi-cell type tumor spheroids was designed to identify active combinations of RAS pathway inhibitors and targeted small molecules. Complex spheroids include a stromal component modeled by human endothelial cells (HUVEC) and fibroblasts modeled by human mesenchymal stem cells (MSCs). The concentration ranges selected for each drug and investigational agent were based upon clinically achievable concentrations if the clinical Cmax of the agent was known.
Compounds. The drugs and investigational agents: abemaciclib (NSC768073), cobimetinib (NSC768068), divarasib (GDC6063, NSC841802), docetaxel (NSC628503), GDC-1971 (RLY-1971, NSC841576), gemcitabine (NSC613327), inavolisib (NSC800729), ipatasertib (NSC767898), KB-0742 (NSC834161), MRTX-1133 (NSC836407), osimertinib (NSC779217), RMC-4630 (NSC839698), RMC-6236 (NSC851965), RMC-6291 (NSC852671), Ro-3306 (NSC812927), sapanisertib (NSC764658), SN-38 (NSC673596), staurosporine (NSC755774), SY5609 (NSC837396), and tovorafenib (DAY101, NSC766906), were obtained from the National Cancer Institute (NCI) Developmental Therapeutics Program Chemical Repository. The FDA-approved anticancer drug set is available from the NCI Developmental Therapeutics Program. […] The stock solutions were prepared in dimethyl sulfoxide (DMSO, Sigma-Aldrich, St. Louis, MO, cat. D2650) at 800-fold the tested concentration and stored at -70 degrees C prior to their use. All drugs and investigational agents were tested over a range starting from a high concentration at or near the clinical Cmax and decreasing in half-log increments. If the clinical Cmax for an agent had not been determined, the highest concentration tested was 10 microM.
Cell Culture. All cells were maintained in an incubator at 37 degrees C and 5% CO2 with 95% humidity. The PDC lines were cultured according to standard operating procedures established by the NCI PDMR. All PDCs were thawed and cultured in Matrigel-coated flasks prepared with a working solution of 1X Ham's F-12 nutrient mix, without supplementation (Invitrogen, Waltham, MA, cat. 11765054), 100 U/mL penicillin-streptomycin (Invitrogen, cat. 15140122), and 2.5% Matrigel (Corning Inc., Corning, NY, cat. 354248) for the first three passages. The 362531-283-R-J2-PDC and 782815-120-R-J1-PDC lines were cultured in 6C/Colon 1B media, which includes advanced DMEM/F-12 (Thermo Fisher Scientific, cat. 12634028), 10 mM HEPES (Thermo Fisher Scientific, cat. 15630080), 1X GlutaMAX supplement (Thermo Fisher Scientific, cat. 35050061), 0.1 mg/mL primocin (InvivoGen, San Diego, CA, cat. ant-pm-2), 10% defined fetal bovine serum, heat inactivated (HyClone Laboratories Inc., Logan, UT, cat. SH30070.03HI), 50% L-WRN conditioned media (ATCC, cat. CRL-3276), 1.25 mM N-Acetyl-L-cysteine (Sigma-Aldrich, cat. A9165), 10 mM nicotinamide (Sigma-Aldrich, cat. N0636), 1X B-27 supplement (Thermo Fisher Scientific, cat. 17504044), 1X N-2 supplement (Thermo Fisher Scientific, cat. 17502048), 50 ng/mL human EGF (Thermo Fisher Scientific, cat. PHG0311), and 10 microM Y-27632 dihydrochloride (Tocris Bioscience, cat. 1254). The K12877-001-R-J1-PDC line was cultured in 6I media, which includes all 6C/Colon 1B media plus 10 ng/mL human FGF-10 (PeproTech, cat. 100-26), 1 ng/mL human FGF-2 (PeproTech, cat. 100-18B), 1 µM prostaglandin E2 (Tocris Bioscience, cat. 2296), […] hydrocortisone (Sigma-Aldrich, cat. H4001), and […] bovine insulin (Sigma-Aldrich, cat. I6634). The K86415-001-R-J1-PDC line was cultured in 6D media, which includes all 6C/Colon 1B media components minus the L-WRN conditioned media. The 485176-168-R4-J1-PDC was cultured in PANC media, which includes all 6C/Colon 1B media plus 100 ng/mL human FGF-10 (PeproTech, cat. 100-26), 500 nM SB-431542 (Selleckchem, cat. S1067), and 10 nM gastrin (Tocris Bioscience, cat. 3006). […]

[1] = compound alone, run of 06/10/2024
[2] = compound alone, run of 05/20/2024
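Also: spheroids exposed to agents for seven days before readout.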
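For viability, T/C in this document: luminescence viability as percent of DMSO vehicle control wells.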

Row | Structure (SMILES) | pIC50 (curve of compound) | IC50 (curve of compound) | viability, T/C (compound 0.1 µM) | viability, T/C (compound 0.316 µM) | viability, T/C (compound 3.16 µM) | viability, T/C (compound 10 µM) | viability, T/C (compound 0.0316 µM) | viability, T/C (compound 1 µM) | other results
1 | C#Cc1c(F)ccc2cc(O)cc(-c3ncc4c(N5CC6CCC(C5)N6)nc(OCC56CCCN5CC(F)C6)nc4c3F)c12 (stereo not given) | – | – | 104% [middle of 8 runs] | 102% [middle of 8 runs] | 111% [middle of 8 runs] | 104% [middle of 8 runs] | – | – | pIC50 [1]: < 5.00
2 | C=CC(=O)N1CCN(c2nc(OCC3CCCN3C)nc3c(F)c(-c4nc(N)cc(C)c4C(F)(F)F)c(Cl)cc23)C(C)C1 (stereo not given) | < 6.00 | – | – | 100% [middle of 12 runs] | – | – | 105% [middle of 12 runs] | – | pIC50 [1]: < 6.00
3 | C=CC(=O)Nc1cc(Nc2nccc(-c3cn(C)c4ccccc34)n2)c(OC)cc1N(C)CCN(C)C | < 6.00 | – | – | – | – | – | 91.6% [middle of 4 runs] | 99.8% [middle of 4 runs] | viability, T/C (compound 0.01 µM): 98.4% [middle of 4 runs]
4 | CC(=O)OC12COC1CC(O)C1(C)C(=O)C(O)C3=C(C)C(OC(=O)C(O)C(NC(=O)OC(C)(C)C)c4ccccc4)CC(O)(C(OC(=O)c4ccccc4)C21)C3(C)C (stereo not given) | > 7.50 | – | 33.6% [middle of 4 runs] | 37.9% [middle of 4 runs] | – | – | – | – | –
5 | CC(C)n1nc(-c2ccc3oc(N)nc3c2)c2c(N)ncnc21 | < 7.00 | – | 51.8% [middle of 4 runs] | – | – | – | 74.9% [middle of 4 runs] | – | viability, T/C (compound 0.000316 µM): 91.6% [middle of 4 runs]; viability, T/C (compound 0.001 µM): 112% and 102% (2×) and 89.9%; viability, T/C (compound 0.00316 µM): 90.7% [middle of 4 runs]; viability, T/C (compound 0.01 µM): 87.2% [middle of 4 runs]
6 | CC(Nc1ccc2c(c1)OCCn1cc(N3C(=O)OCC3C(F)F)nc1-2)C(N)=O (stereo not given) | < 5.00 | – | – | 85.7% [middle of 4 runs] | 93.8% [middle of 4 runs] | 84.6% [middle of 4 runs] | 94% [middle of 4 runs] | 87.3% [middle of 4 runs] | –
7 | CC1(C)CCC(Nc2ncc(C(F)(F)F)c(-c3c[nH]c4c(P(C)(C)=O)c(C#N)ccc34)n2)CN1 (stereo not given) | < 6.52 | – | – | – | – | – | – | – | viability, T/C (compound 0.003 µM): 102% [middle of 4 runs]; viability, T/C (compound 0.0949 µM): 74.2% [middle of 4 runs]; viability, T/C (compound 0.3 µM): 75.7% [middle of 4 runs]
8 | CC1(O)CCCC1n1c(=O)c(C(F)F)cc2cnc(NC3CCN(S(C)(=O)=O)CC3)nc21 (stereo not given) | – | 6.64 µM [middle of 4 runs] | 128% [middle of 4 runs] | – | – | 5.45% [middle of 4 runs] | – | 112% (2×) and 190% and 160% | –
9 | CCC(CC)c1cc(NC2CCC(N)C2)n2nccc2n1 (stereo not given) | – | 1.96 µM [middle of 4 runs] | – | – | 10.4% [middle of 4 runs] | 3% [middle of 4 runs] | – | 112% [middle of 4 runs] | –
10 | CCc1c2c(nc3ccc(O)cc13)-c1cc3c(c(=O)n1C2)COC(=O)[C@]3(O)CC | < 6.52 | – | – | – | – | – | – | – | viability, T/C (compound 0.000949 µM): 106% [middle of 4 runs]; viability, T/C (compound 0.003 µM): 107% (2×) and 119% and 122%
11 | CCn1c(-c2cc(N3CCN(C)CC3)cnc2C(C)OC)c2c3cc(ccc31)-c1csc(n1)CC(NC(=O)C1CC1C)C(=O)N1CCCC(N1)C(=O)OCC(C)(C)C2 (stereo not given) | – | – | – | – | – | – | – | – | viability, T/C (compound 0.003 µM): 95.7% [middle of 8 runs]; viability, T/C (compound 0.00949 µM): 98.4% [middle of 8 runs]; viability, T/C (compound 0.0949 µM): 105% [middle of 8 runs]; pIC50 [2]: < 6.52
12 | CCn1c(-c2cccnc2C(C)OC)c2c3cc(ccc31)N1CCOC(CC(NC(=O)C(C(C)C)N(C)C(=O)C3(F)CCN(C(=O)C#CC(C)(C)N(C)C)CC3)C(=O)N3CCCC(N3)C(=O)OCC(C)(C)C2)C1 (stereo not given) | – | – | – | – | – | – | – | – | viability, T/C (compound 0.000949 µM): 98.8% [middle of 8 runs]; viability, T/C (compound 0.00949 µM): 104% [middle of 8 runs]; viability, T/C (compound 0.03 µM): 102% [middle of 8 runs]; viability, T/C (compound 0.0949 µM): 102% [middle of 8 runs]; viability, T/C (compound 0.3 µM): 102% [middle of 8 runs]; pIC50 [2]: < 6.52
13 | C[C@@H](NC(=O)c1ncnc(N)c1Cl)c1ncc(C(=O)Nc2cc(C(F)(F)F)c(Cl)cn2)s1 | < 5.00 | – | 94.9% [middle of 4 runs] | 92.8% [middle of 4 runs] | 81.1% [middle of 4 runs] | 72.1% [middle of 4 runs] | 92.9% [middle of 4 runs] | 94.9% [middle of 4 runs] | –
14 | Nc1ccn(C2OC(CO)C(O)C2(F)F)c(=O)n1 (stereo not given) | < 6.00 and 6.66 and 6.56 | – | – | – | – | – | – | – | viability, T/C (compound 0.00316 µM): 94.8% [middle of 4 runs]; viability, T/C (compound 0.01 µM): 101% [middle of 4 runs]

Continued, in another order:

Row | pIC50 (curve of compound) | IC50 (curve of compound) | Structure (SMILES) | viability, T/C (compound 0.1 µM) | viability, T/C (compound 0.316 µM) | viability, T/C (compound 3.16 µM) | viability, T/C (compound 10 µM) | viability, T/C (compound 0.0316 µM) | viability, T/C (compound 1 µM) | other results
15 | < 5.00 | – | CC(C)NCC(C(=O)N1CCN(c2ncnc3c2C(C)CC3O)CC1)c1ccc(Cl)cc1 (stereo not given) | – | – | 90.4% [middle of 4 runs] | 80.6% [middle of 4 runs] | 95.3% [middle of 4 runs] | 94.8% [middle of 4 runs] | –
16 | < 6.00 | – | CCN1CCN(Cc2ccc(Nc3ncc(F)c(-c4cc(F)c5nc(C)n(C(C)C)c5c4)n3)nc2)CC1 | – | 121% and 132% (2×) and 151% | – | – | – | 178% [middle of 4 runs] | viability, T/C (compound 0.00316 µM): 105% [middle of 4 runs]; viability, T/C (compound 0.01 µM): 107% [middle of 4 runs]
17 | < 5.00 | – | Cc1nc(N2CCC3(CC2)COC(C)C3N)c(CO)nc1Sc1ccnc(N)c1Cl (stereo not given) | – | 94.9% [middle of 4 runs] | – | – | 93.8% and 100% (2×) and 88.5% | 102% [middle of 4 runs] | –
18 | < 5.00 | – | NC1c2ccccc2OC12CCN(c1cnc3c(N4CCCc5ncccc54)n[nH]c3n1)CC2 (stereo not given) | 98.2% [middle of 4 runs] | 101% [middle of 4 runs] | 97.5% [middle of 4 runs] | 89.8% [middle of 4 runs] | 98.1% [middle of 4 runs] | 109% (2×) and 96.3% and 103% | –
19 | – | 79.8 nM [middle of 4 runs] | O=C(c1ccc(F)c(F)c1Nc1ccc(I)cc1F)N1CC(O)([C@@H]2CCCCN2)C1 | 53.5% [middle of 4 runs] | 28.1% [middle of 4 runs] | – | – | – | 20.8% [middle of 4 runs] | viability, T/C (compound 0.00316 µM): 75.2% [middle of 4 runs]
